Where a name gives a salt, the structure may show the parent alone.
Molecular target: T1, mGluR5 receptor (Sus scrofa, UniProt I3LUI7)
T1 construct: 450 μg of protein from brain homogenate with 5 nM ^3[H]-MPEP; from tissue; host or cells: pig brain halves without medulla, cerebellum and pons
Assay: [3H]-MPEP mGluR5 receptor binding assay (pig brain homogenate)
Conditions: 5 nM [3H]-MPEP, read-out: IC50 mGluR5 Receptor (pig) [^3H]-MPEP Bond
Summary of the method: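 Radioligand displacement of 5 nM [3H]-MPEP from pig brain homogenate (450 μg protein; medulla, cerebellum and pons removed) in 20 mM Hepes pH 8.0. Compounds were tested at 10 μM, incubated 60 min at room temperature, then filtered and counted by scintillation. Non-specific binding was defined with 10 μM MPEP.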

T1 sequence (I3LUI7 19-1212): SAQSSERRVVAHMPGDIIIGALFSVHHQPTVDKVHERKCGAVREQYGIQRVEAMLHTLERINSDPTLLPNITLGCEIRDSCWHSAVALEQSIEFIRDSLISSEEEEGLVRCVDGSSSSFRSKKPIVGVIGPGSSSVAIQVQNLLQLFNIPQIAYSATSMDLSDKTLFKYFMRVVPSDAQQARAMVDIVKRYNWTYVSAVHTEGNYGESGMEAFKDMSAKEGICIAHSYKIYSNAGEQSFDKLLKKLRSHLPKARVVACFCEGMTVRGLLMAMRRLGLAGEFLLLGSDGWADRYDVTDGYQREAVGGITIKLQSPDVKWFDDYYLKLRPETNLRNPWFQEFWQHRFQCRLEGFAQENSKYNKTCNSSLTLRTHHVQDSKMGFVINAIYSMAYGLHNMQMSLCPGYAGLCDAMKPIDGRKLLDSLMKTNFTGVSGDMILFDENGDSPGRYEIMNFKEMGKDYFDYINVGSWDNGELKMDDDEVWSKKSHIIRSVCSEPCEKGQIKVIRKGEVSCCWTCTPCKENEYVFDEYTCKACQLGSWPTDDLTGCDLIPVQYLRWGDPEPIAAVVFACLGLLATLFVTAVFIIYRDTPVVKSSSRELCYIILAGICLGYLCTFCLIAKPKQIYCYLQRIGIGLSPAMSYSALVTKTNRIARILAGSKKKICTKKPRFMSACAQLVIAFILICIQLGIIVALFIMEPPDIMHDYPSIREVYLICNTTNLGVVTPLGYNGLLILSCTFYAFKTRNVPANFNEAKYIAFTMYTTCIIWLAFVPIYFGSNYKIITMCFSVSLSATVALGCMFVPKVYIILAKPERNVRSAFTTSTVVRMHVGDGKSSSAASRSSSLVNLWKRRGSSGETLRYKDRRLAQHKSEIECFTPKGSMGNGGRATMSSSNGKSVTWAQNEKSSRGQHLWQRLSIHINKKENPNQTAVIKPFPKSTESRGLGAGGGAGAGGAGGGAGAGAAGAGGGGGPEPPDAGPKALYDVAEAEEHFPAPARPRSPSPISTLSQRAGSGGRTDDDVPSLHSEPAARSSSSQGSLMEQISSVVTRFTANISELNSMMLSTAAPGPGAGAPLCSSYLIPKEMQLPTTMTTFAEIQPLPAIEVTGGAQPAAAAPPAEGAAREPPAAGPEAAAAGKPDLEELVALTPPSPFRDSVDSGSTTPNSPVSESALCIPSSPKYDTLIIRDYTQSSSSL

| Structure (SMILES) | IC50 [nM] |
| --- | --- |
| CC(c1cccc(-c2ccc3ncnc(NC4CC4)c3c2)c1)N(C1CC1)S(C)(=O)=O (stereo not shown) [Example 231, N-cyclopropyl-N-(1-(3-(4-(cyclopropylamino)quinazolin-6-yl)phenyl)ethyl)methane sulfonamide] | 5720 |
| CC(=O)N(Cc1ccc(-c2ccc3ncnc(NC4CC4)c3c2)o1)C1CC1 [Example 232, N-cyclopropyl-N-[5-(4-cyclopropylamino-quinazolin-6-yl)-furan-2-yl-methyl]-acetamide] | 4270 |
| CC(c1cccc(-c2ccc3ncnc(NC4CC4)c3c2)c1)N(C(=O)c1ccccc1)C1CC1 (stereo not shown) [Example 233, N-cyclopropyl-N-{1-[3-(4-cyclopropylamino-quinazolin-6-yl)-phenyl]-ethyl}-benzamide] | 820 |
| CC(=O)N(C1CC1)C(C)c1cccc(-c2ccc3ncnc(NC4CC4)c3c2)c1 (stereo not shown) [Example 235, N-cyclopropyl-N-{1-[3-(4-cyclopropylamino-quinazolin-6-yl)-phenyl]-ethyl}-acetamide] | 7350 |
| COC(=O)CC(=O)N(Cc1cccc(-c2ccc3ncnc(NC4CC4)c3c2)c1)C1CC1 [Example 237, N-cyclopropyl-N-[3-(4-cyclopropylamino-quinazolin-6-yl)-benzyl]-methyl malonate] | 570 |
| COC(=O)C(=O)N(Cc1cccc(-c2ccc3ncnc(NC4CC4)c3c2)c1)C1CC1 [Example 238, N-cyclopropyl-N-[3-(4-cyclopropylamino-quinazolin-6-yl)-benzyl]-methyl oxalate] | 500 |
| CC(=O)N(Cc1cc(C)cc(-c2ccc3ncnc(NC4CC4)c3c2)c1)C1CC1 [Example 239, N-cyclopropyl-N-[3-(4-cyclopropylamino-quinazolin-6-yl)-5-methyl-benzyl]-acetamide] | 4120 |
| O=C1C2CCCCC2C(=O)N1Cc1cccc(-c2ccc3ncnc(NC4CC4)c3c2)c1 (stereo not shown) [Example 242, 2-[3-(4-cyclopropylamino-quinazolin-6-yl)-benzyl]-hexahydro-isoindole-1,3-dione hydrochloride] | 3080 |
| O=C(c1ccccc1)N(Cc1c(F)ccc(-c2ccc3ncnc(NC4CC4)c3c2)c1F)C1CC1 [Example 244, N-cyclopropyl-N-[3-(4-cyclopropylamino-quinazolin-6-yl)-2,6-difluoro-benzyl]-benzamide] | 220 |
| CS(=O)(=O)N(Cc1c(F)ccc(-c2ccc3ncnc(NC4CC4)c3c2)c1F)C1CC1 [Example 246, N-cyclopropyl-N-(3-(4-(cyclopropylamino)quinazolin-6-yl)-2,6-difluorobenzyl)methane sulfonamide] | 350 |
| CC(C)NC(=O)N(Cc1cccc(-c2ccc3ncnc(NC4CC4)c3c2)c1)C1CC1 [Example 247, 1-cyclopropyl-1-[3-(4-cyclopropylamino-quinazolin-6-yl)-benzyl]-3-isopropyl-urea] | 7340 |
| O=C(c1cccnc1)N(Cc1cccc(-c2ccc3ncnc(NC4CC4)c3c2)c1)C1CC1 [Example 248, N-cyclopropyl-N-[3-(4-cyclopropylamino-quinazolin-6-yl)-benzyl]-nicotinamide] | 3150 |
| CC(=O)N(Cc1c(F)ccc(-c2ccc3ncnc(NC4CC4)c3c2)c1F)C1CC1 [Example 249, N-cyclopropyl-N-[3-(4-cyclopropylamino-quinazolin-6-yl)-2,6-difluoro-benzyl]-acetamide] | 140 |
| COCC(=O)N(Cc1cccc(-c2ccc3ncnc(NC4CC4)c3c2)c1)C1CC1 [Example 252, N-cyclopropyl-N-[3-(4-cyclopropylamino-quinazolin-6-yl)-benzyl]-2-methoxy-acetamide] | 920 |
| O=C(c1ccno1)N(Cc1cccc(-c2ccc3ncnc(NC4CC4)c3c2)c1)C1CC1 [Example 253, isoxazole-5-carboxylic acid cyclopropyl-[3-(4-cyclopropylamino-quinazolin-6-yl)-benzyl]-amide] | 1310 |
| O=C(c1c(F)c(F)c(F)c(F)c1F)N(Cc1cccc(-c2ccc3ncnc(NC4CC4)c3c2)c1)C1CC1 [Example 254, N-cyclopropyl-N-[3-(4-cyclopropylamino-quinazolin-6-yl)-benzyl]-2,3,4,5,6-pentafluoro-benzamide] | 600 |

| Structure (SMILES) | IC50 [nM] |
| --- | --- |
| O=C(C=Cc1ccccc1)N(Cc1cccc(-c2ccc3ncnc(NC4CC4)c3c2)c1)C1CC1 [Example 255, N-cyclopropyl-N-[3-(4-cyclopropylamino-quinazolin-6-yl)-benzyl]-3-phenyl-acrylamide] | 1850 |
| CCCCC(=O)N(Cc1cccc(-c2ccc3ncnc(NC4CC4)c3c2)c1)C1CC1 [Example 256, pentanoic acid cyclopropyl-[3-(4-cyclopropylamino-quinazolin-6-yl)-benzyl]-amide] | 1470 |
| O=C(c1ccncc1)N(Cc1cccc(-c2ccc3ncnc(NC4CC4)c3c2)c1)C1CC1 [Example 257, N-cyclopropyl-N-[3-(4-cyclopropylamino-quinazolin-6-yl)-benzyl]-isonicotinamide] | 740 |
| COc1ccc(-c2ccc3ncnc(NC4CC4)c3c2)cc1CN(C(C)=O)C1CC1 [Example 259, N-cyclopropyl-N-[5-(4-cyclopropylamino-quinazolin-6-yl)-2-methoxy-benzyl]-acetamide] | 290 |
| O=C(CCc1ccccc1)N(Cc1cccc(-c2ccc3ncnc(NC4CC4)c3c2)c1)C1CC1 [Example 263, N-cyclopropyl-N-[3-(4-cyclopropylamino-quinazolin-6-yl)-benzyl]-3-phenyl-propionamide] | 1700 |
| O=C(Cc1ccccc1)N(Cc1cccc(-c2ccc3ncnc(NC4CC4)c3c2)c1)C1CC1 [Example 264, N-cyclopropyl-N-[3-(4-cyclopropylamino-quinazolin-6-yl)-benzyl]-2-phenyl-acetamide] | 1520 |
| O=C(C1CCCCC1)N(Cc1cccc(-c2ccc3ncnc(NC4CC4)c3c2)c1)C1CC1 [Example 265, N-cyclopropyl-N-(3-(4-(cyclopropylamino)quinazolin-6-yl)benzyl)cyclohexane carboxamide] | 1890 |
| CC(C)(C)C(=O)N(Cc1cccc(-c2ccc3ncnc(NC4CC4)c3c2)c1)C1CC1 [Example 266, N-cyclopropyl-N-(3-(4-(cyclopropylamino)quinazolin-6-yl)benzyl)pivalamide] | 1270 |
| COc1ccc(CN(C(=O)c2ccccc2)C2CC2)cc1-c1ccc2ncnc(NC3CC3)c2c1 [Example 267, N-cyclopropyl-N-(3-(4-(cyclopropylamino)quinazolin-6-yl)-4-methoxybenzyl)benzamide hydrochloride] | 6550 |
| COc1ccc(CN(C(=O)c2ccccc2)C2CC2)cc1-c1ccc2ncnc(NC3CC3)c2c1 [Example 268, N-cyclopropyl-N-(3-(4-(cyclopropylamino)quinazolin-6-yl)-4-methoxybenzyl)benzamide] | 5410 |
| CN(c1ncnc2ccc(-c3cccc(CN(C(=O)c4ccccn4)C4CC4)c3)cc12)C1CC1 [Example 272, N-cyclopropyl-N-(3-(4-(cyclopropyl(methyl)amino)quinazolin-6-yl)benzyl)picolinamide] | 15300 |
| O=C(c1ccccc1)N(Cc1cccc(-c2ccc3ncnc(NC4CC4)c3c2)c1)C1CC1 [Example 274, N-cyclopropyl-N-(3-(4-(cyclopropylamino)quinazolin-6-yl)benzyl)benzamide] | 860 |
| O=C(c1ccccn1)N(Cc1cccc(-c2ccc3ncnc(NC4CC4)c3c2)c1)C1CC1 [Example 275, N-cyclopropyl-N-(3-(4-(cyclopropylamino)quinazolin-6-yl)benzyl) picolinamide] | 1380 |
| N#CCC(=O)N(Cc1cc(-c2ccc3ncnc(NC4CC4)c3c2)ccc1F)C1CC1 [Example 277, 2-cyano-N-cyclopropyl-N-(5-(4-(cyclopropylamino)quinazolin-6-yl)-2-fluorobenzyl)acetamide] | 40 |
| O=C1CCCC(=O)N1Cc1cc(-c2ccc3ncnc(NC4CC4)c3c2)ccc1F [Example 278, 1-(5-(4-(cyclopropylamino)quinazolin-6-yl)-2-fluorobenzyl)piperidine-2,6-dione] | 350 |
| CC(=O)N(Cc1cc(-c2ccc3ncnc(NC4CC4)c3c2)ccc1F)C(C)(C)C [Example 279, N-tert-butyl-N-(5-(4-(cyclopropylamino)quinazolin-6-yl)-2-fluorobenzyl)acetamide] | 9420 |

Same assay, conditions: 10 μM compound, 5 nM [3H]-MPEP, read-out: % Inhibition of mGluR5 Receptor (pig) [^3H]-MPEP Bond at 10 μM

| Structure (SMILES) | inhibition at 10 µM [%] |
| --- | --- |
| CS(=O)(=O)N(Cc1cncc(-c2ccc3ncnc(NC4CC4)c3c2)c1)C1CC1 [Example 234, N-cyclopropyl-N-[5-(4-cyclopropylamino-quinazolin-6-yl)-pyridin-3-yl-methyl]-methane sulfonamide] | 41 |
| CC(=O)N(Cc1cncc(-c2ccc3ncnc(NC4CC4)c3c2)c1)C1CC1 [Example 240, N-cyclopropyl-N-[5-(4-cyclopropylamino-quinazolin-6-yl)-pyridin-3-yl-methyl]-acetamide] | 47 |
| O=C1c2ccccc2C(=O)N1Cc1cccc(-c2ccc3ncnc(NC4CC4)c3c2)c1 [Example 241, 2-[3-(4-cyclopropylamino-quinazolin-6-yl)-benzyl]-isoindole-1,3-dione; hydrochloride] | 33 |
| O=C1CC2(CCCC2)CC(=O)N1Cc1cccc(-c2ccc3ncnc(NC4CC4)c3c2)c1 [Example 243, 8-[3-(4-cyclopropylamino-quinazolin-6-yl)-benzyl]-8-aza-spiro[4.5]decane-7,9-dione; hydrochloride] | 39 |
| CS(=O)(=O)N(Cc1cc(-c2ccc3ncnc(NC4CC4)c3c2)ccc1F)C1CC1 [Example 251, N-cyclopropyl-N-(5-(4-(cyclopropylamino)quinazolin-6-yl)-2-fluorobenzyl)methane sulfonamide] | 30 |
